ChEMBL document CHEMBL1201862, “PubChem BioAssay data set” (2004)
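Assay format: 96-well plates, 48-hour exposure. GI50 marks 50% less growth.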 The source made the active and inactive calls. No stated cut-off is given here; in the data, active = GI50 up to about 1.1 µM and inactive = higher.

Tests used:
Test in all cases: growth of human tumour cells (NCI), 48 h
A498 = system: A498
HCT-116 = system: HCT-116
HCT-15 = system: HCT-15
HL-60 = system: HL-60
IGROV-1 = system: IGROV-1
K562 = system: K562
KM12 = system: KM12
LXFL 529 = system: LXFL 529
Malme-3M = system: Malme-3M
NCI-H522 = system: NCI-H522
OVCAR-3 = system: OVCAR-3
OVCAR-5 = system: OVCAR-5
OVCAR-8 = system: OVCAR-8
SF-539 = system: SF-539
SK-MEL-2 = system: SK-MEL-2
SK-MEL-5 = system: SK-MEL-5
SR = system: SR
SW-620 = system: SW-620
UO-31 = system: UO-31
OVCAR-4 = system: OVCAR-4

Row | Compound | GI50 (A498) | GI50 (HCT-116) | GI50 (HCT-15) | GI50 (HL-60) | GI50 (IGROV-1) | GI50 (K562) | GI50 (KM12) | GI50 (LXFL 529) | GI50 (Malme-3M) | GI50 (NCI-H522) | GI50 (OVCAR-3) | GI50 (OVCAR-5) | GI50 (OVCAR-8) | GI50 (SF-539) | GI50 (SK-MEL-2) | GI50 (SK-MEL-5) | GI50 (SR) | GI50 (SW-620) | GI50 (UO-31) | GI50 (OVCAR-4)
1 | CCN(CC)CC(C)(C)C(=O)/C=C/c1ccc(/C=C/C(=O)C(C)(C)CN(CC)CC)cc1 | 1.7 µM (inactive) | 0.334 µM (active) | 0.325 µM | 0.0499 µM (active) | 1.27 µM (inactive) | 0.0935 µM (active) | 0.879 µM (active) | 0.188 µM (active) | 1.12 µM (inactive) | 0.104 µM (active) | 0.533 µM (active) | 1.54 µM (inactive) | 0.259 µM (active) | 1.2 µM (inactive) | 1.72 µM (inactive) | 1.54 µM (inactive) | 0.0893 µM (active) | 0.211 µM (active) | 1.8 µM (inactive) | 
2 | CCN(CC)C(=O)N1CCN(C=S)CC1 | > 100 µM (inactive) | > 100 µM (inactive) | > 100 µM | > 100 µM (inactive) | > 100 µM (inactive) | > 100 µM (inactive) | > 100 µM (inactive) | > 100 µM (inactive) | > 100 µM (inactive) | > 100 µM (inactive) | > 100 µM (inactive) | > 100 µM (inactive) | > 100 µM (inactive) | > 100 µM (inactive) | > 100 µM (inactive) | > 100 µM (inactive) | > 100 µM (inactive) | > 100 µM (inactive) | > 100 µM (inactive) | > 100 µM (inactive)
3 | N#Cc1cc([N+](=O)[O-])ccc1NC(=O)C(=O)Nn1c(S)nc2ccccc2c1=O | > 100 µM (inactive) | > 100 µM (inactive) | > 100 µM | > 100 µM (inactive) | > 100 µM (inactive) | > 100 µM (inactive) | > 100 µM (inactive) | > 100 µM (inactive) | > 100 µM (inactive) | > 100 µM (inactive) | > 100 µM (inactive) | > 100 µM (inactive) | > 100 µM (inactive) | > 100 µM (inactive) |  | > 100 µM (inactive) | > 100 µM (inactive) | > 100 µM (inactive) | > 100 µM (inactive) | > 100 µM (inactive)
4 | CCOC(=O)C(C)(C)Oc1ccc2c(-c3ccccc3)cc(=O)oc2c1 | 30.2 µM (inactive) | 35.6 µM (inactive) | 31.8 µM | 20.1 µM (inactive) | 25.1 µM (inactive) | 27.6 µM (inactive) |  | 25.3 µM (inactive) | 28.6 µM (inactive) |  | 33.9 µM (inactive) |  | 37.1 µM (inactive) | 31.8 µM (inactive) | 22.6 µM (inactive) | 13.9 µM (inactive) | 24.9 µM (inactive) | 36.7 µM (inactive) | 23 µM (inactive) | 35.4 µM (inactive)
5 | COc1ccc(/C=C\c2cc(OC)c(OC)c(OC)c2)cc1OC | 0.236 µM (active) | 0.135 µM (active) | 0.113 µM | 0.0912 µM (active) | 0.278 µM (active) | 0.12 µM (active) | 0.0957 µM (active) | 0.186 µM (active) | 0.0746 µM (active) | 0.0349 µM (active) | 0.0916 µM (active) | 12.2 µM (inactive) | 0.153 µM (active) | 0.113 µM (active) | 0.0641 µM (active) | 0.207 µM (active) | 0.0649 µM (active) | 0.149 µM (active) | 2.21 µM (inactive) | 15.8 µM (inactive)
6 | CC1=C(C(=O)Nc2ccccc2)C(c2ccc(N(C)C)cc2)C(C(=O)Nc2ccccc2)=C(C)N1 | > 100 µM (inactive) | 4.72 µM (inactive) | 0.493 µM | 5.3 µM (inactive) | 16.9 µM (inactive) | 1.09 µM (active) | 0.964 µM (active) | 0.175 µM (active) | 4.79 µM (inactive) | 6.64 µM (inactive) | 8.69 µM (inactive) | 18.6 µM (inactive) | 11.9 µM (inactive) | 9.59 µM (inactive) | > 70.1 µM (inactive) | 1.1 µM (active) | 11.1 µM (inactive) | 13.7 µM (inactive) | 2.37 µM (inactive) | 50.8 µM (inactive)
7 | NNC(=O)C(=O)N/N=C1/CCCC1C(=O)CCC(=O)Nc1ccc(Cl)cc1 (stereo not given) | > 100 µM (inactive) | > 100 µM (inactive) | 12.2 µM | > 100 µM (inactive) | > 100 µM (inactive) | 12.1 µM (inactive) | > 100 µM (inactive) | 20.6 µM (inactive) | > 100 µM (inactive) | > 100 µM (inactive) | > 100 µM (inactive) | > 100 µM (inactive) | > 100 µM (inactive) | > 100 µM (inactive) | 24.4 µM (inactive) | > 100 µM (inactive) | > 100 µM (inactive) | > 100 µM (inactive) | > 100 µM (inactive) | > 100 µM (inactive)
